The results in this text go back to patent US12202843B2, “Muscarinic receptor agonists” (Nxera Pharma UK Limited, priority 2014, dated 2025).

The target in experiment [1] is T1, human muscarinic M2 receptor (Homo sapiens, UniProt P08172).
T1 sequence (P08172 1-466): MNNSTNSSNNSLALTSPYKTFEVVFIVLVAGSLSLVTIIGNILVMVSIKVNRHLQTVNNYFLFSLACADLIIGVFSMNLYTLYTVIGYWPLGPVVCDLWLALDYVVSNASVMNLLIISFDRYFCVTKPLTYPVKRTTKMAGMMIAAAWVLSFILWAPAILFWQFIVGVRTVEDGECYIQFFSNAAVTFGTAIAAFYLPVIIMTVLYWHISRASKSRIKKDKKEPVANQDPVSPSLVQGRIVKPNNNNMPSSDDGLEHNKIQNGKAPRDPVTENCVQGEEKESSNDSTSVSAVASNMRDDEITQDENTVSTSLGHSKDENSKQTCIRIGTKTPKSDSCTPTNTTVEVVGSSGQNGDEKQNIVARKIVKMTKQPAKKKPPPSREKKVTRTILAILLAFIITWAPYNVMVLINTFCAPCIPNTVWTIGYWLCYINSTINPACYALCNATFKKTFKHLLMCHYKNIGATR
Kind of experiment: Alphascreen Surefire phospho-ERK1/2 functional assay, M2. It is filed as cell-based. Background: In Alpha technology, singlet oxygen from a donor bead excites a nearby acceptor bead.

In experiment [2] the target is T2, human muscarinic M3 receptor (Homo sapiens, UniProt P20309).
T2 construct: expressed in transfected cells
As to the kind of experiment: Alphascreen Surefire phospho-ERK1/2 functional assay, M3. It is filed as cell-based.

The target of experiment [3] is T3, human muscarinic M4 receptor (Homo sapiens, UniProt P08173).
T3 construct: expressed in transfected cells
T3 sequence (P08173 1-479): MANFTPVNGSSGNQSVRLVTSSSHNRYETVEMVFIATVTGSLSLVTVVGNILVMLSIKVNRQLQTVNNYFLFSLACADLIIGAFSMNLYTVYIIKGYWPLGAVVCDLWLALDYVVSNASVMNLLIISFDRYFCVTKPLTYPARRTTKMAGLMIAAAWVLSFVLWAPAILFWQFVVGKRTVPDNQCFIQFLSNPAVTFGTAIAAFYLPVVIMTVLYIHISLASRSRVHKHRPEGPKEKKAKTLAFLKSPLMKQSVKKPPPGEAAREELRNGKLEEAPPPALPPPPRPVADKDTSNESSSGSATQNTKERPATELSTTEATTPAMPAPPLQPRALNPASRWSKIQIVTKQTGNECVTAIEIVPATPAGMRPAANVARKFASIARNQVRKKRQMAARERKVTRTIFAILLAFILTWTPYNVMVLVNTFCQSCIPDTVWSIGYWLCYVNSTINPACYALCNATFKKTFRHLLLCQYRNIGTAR
As to the kind of experiment: Alphascreen Surefire phospho-ERK1/2 functional assay, M4. It is filed as cell-based.

The test system of experiment [4] is scopolamine-induced amnesia. As to the kind of experiment: Passive avoidance, scopolamine-induced amnesia. In kind it is in vivo. Particulars: 90 minutes prior to training. As for the experimental part: Studies were carried out as described previously by Foley et al., (2004) Neuropsychopharmacology. In the passive avoidance task scopolamine administration (1 mg/kg, i.p.) at 6 hours following training rendered animals amnesic of the paradigm. A dose range of 3, 10, and 30 mg/kg (po) free base, administered 90 minutes prior to the training period via oral gavage, was examined.

In experiment [5] the target is T4, human muscarinic M1 receptor (Homo sapiens, UniProt P11229).
T4 sequence (P11229 1-460): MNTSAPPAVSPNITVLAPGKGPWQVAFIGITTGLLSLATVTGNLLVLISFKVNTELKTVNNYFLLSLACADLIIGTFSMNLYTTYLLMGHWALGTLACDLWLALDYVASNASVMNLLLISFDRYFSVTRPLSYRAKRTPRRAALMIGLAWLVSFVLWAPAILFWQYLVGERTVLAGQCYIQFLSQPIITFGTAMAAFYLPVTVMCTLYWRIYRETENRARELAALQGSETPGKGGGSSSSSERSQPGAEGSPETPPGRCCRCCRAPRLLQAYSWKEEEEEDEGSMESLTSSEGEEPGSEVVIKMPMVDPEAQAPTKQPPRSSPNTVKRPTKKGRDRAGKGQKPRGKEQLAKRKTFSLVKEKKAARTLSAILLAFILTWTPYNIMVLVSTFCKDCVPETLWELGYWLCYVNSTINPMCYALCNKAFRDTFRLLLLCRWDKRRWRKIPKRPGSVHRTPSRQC
Kind of experiment: Alphascreen Surefire phospho-ERK1/2 functional assay, M1. In kind it is cell-based.

For orientation: ED50 means the dose at which the effect has come halfway, by size or by number of responders. What is called Emax is the size of the effect at its maximum, as opposed to the concentration needed.

Some results are limits rather than exact numbers.

T2 sequence (P20309 whole entry): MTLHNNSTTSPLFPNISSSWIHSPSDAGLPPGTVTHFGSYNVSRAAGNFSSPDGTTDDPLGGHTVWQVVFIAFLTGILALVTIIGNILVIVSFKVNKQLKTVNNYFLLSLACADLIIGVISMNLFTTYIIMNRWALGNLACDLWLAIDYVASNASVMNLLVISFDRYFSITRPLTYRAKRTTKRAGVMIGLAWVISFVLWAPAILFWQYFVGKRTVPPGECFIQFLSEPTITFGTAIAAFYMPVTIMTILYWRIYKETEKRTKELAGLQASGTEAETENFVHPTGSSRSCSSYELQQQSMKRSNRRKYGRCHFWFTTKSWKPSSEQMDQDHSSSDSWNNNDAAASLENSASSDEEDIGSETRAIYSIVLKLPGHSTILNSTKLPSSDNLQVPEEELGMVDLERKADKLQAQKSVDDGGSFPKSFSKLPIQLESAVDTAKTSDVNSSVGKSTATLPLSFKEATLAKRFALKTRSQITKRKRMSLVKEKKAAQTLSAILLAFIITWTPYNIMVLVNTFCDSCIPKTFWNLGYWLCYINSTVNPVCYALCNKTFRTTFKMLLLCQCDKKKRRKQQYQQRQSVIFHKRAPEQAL

For `CCOC(=O)N1C2CCC1CC(N1CCC3(CC1)CNC(=O)C3)C2` (single isomer, unassigned) [Example 2-2 Isomer 1, ethyl 3-(3-oxo-2,8-diazaspiro[4.5]dec-8-yl)-8-azabicyclo[3.2.1]octane-8-carboxylate], the “% Emax cf. ACh, M2” value in experiment [1] (CHO cells stably expressing human M2, relative to ACh) is 0%. Moreover, the “% Emax cf. ACh, M3” value in experiment [2] (CHO cells stably expressing human M3, relative to ACh, listed as 2-2 Isomer 1) was 17%. In experiment [3] (CHO cells stably expressing human M4, relative to ACh, listed as 2-2 Isomer 1), the “% Emax cf. ACh, M4” value was 53%. The “reversal of scopolamine-induced amnesia in passive avoidance” value in experiment [4] (3, 10 and 30 mg/kg po free base, scopolamine 1 mg/kg i.p.) is “reverse scopolamine-induced amnesia of the paradigm in a dose-dependent manner”. Also, the ED50 in experiment [4] (po, scopolamine 1 mg/kg i.p. 6 hours following training, read-out: approximate ED50, reversal of scopolamine-induced amnesia) was ~10 mg/kg.
Consider `CCOC(=O)N1C2CC[C@@H]1C[C@H](N1CCC3(CC1)CC(=O)N(O)C3)C2` [Example 2-24, ethyl (3-endo)-3-(2-hydroxy-3-oxo-2,8-diazaspiro[4.5]dec-8-yl)-8-azabicyclo[3.2.1]octane-8-carboxylate], for which the EC50 in experiment [5] (CHO cells stably expressing human M1, read-out: pEC50 M1 (converted)) is 0.0631 µM; in experiment [1] (CHO cells stably expressing human M2, read-out: pEC50 M2 (converted)) it was > 20 µM; in experiment [2] (CHO cells stably expressing human M3, read-out: pEC50 M3 (converted)), > 20 µM; in experiment [3] (CHO cells stably expressing human M4, read-out: pEC50 M4 (converted)), > 20 µM. The Emax in experiment [5] (CHO, read-out: % Emax cf. ACh, M1, CHO cells stably expressing human M1, relative to ACh) is 88%; in experiment [1] (CHO, read-out: % Emax cf. ACh, M2, CHO cells stably expressing human M2, relative to ACh) it was 4%; in experiment [2] (CHO, read-out: % Emax cf. ACh, M3, CHO cells stably expressing human M3, relative to ACh) it was 4%; in experiment [3] (CHO, read-out: % Emax cf. ACh, M4, CHO cells stably expressing human M4, relative to ACh), 29%.
